# Data published in ChEMBL document CHEMBL1155780, “Lack of aquaporin-4 water transport inhibition by antiepileptics and arylsulfonamides” (Bioorg Med Chem, 2008).
# Molecular target: Aquaporin-4 (Homo sapiens) (UniProt P55087)
# Details: FRT
# Description: Inhibition of AQP4 expressed in rat FRT cells assessed as osmotic water permeability at 100 uM after 15 mins by stopped-flow light scattering method
# Chain of Aquaporin-4 (Homo sapiens) (P55087 whole entry): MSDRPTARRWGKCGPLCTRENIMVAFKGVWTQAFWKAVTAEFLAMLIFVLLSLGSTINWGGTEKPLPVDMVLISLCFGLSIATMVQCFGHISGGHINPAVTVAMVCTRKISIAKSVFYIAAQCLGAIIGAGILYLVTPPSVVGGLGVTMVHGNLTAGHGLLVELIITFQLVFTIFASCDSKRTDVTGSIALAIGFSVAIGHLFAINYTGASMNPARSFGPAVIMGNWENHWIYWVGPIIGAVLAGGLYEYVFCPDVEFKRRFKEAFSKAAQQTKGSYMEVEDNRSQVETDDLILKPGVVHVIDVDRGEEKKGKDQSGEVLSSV
row,Compound,permeability [nm/s]
1,CC(=O)Nc1nnc(S(N)(=O)=O)s1,129000
2,CNS(=O)(=O)Cc1ccc2[nH]cc(CCN(C)C)c2c1,129000
3,O=C1NC(=O)C(c2ccccc2)(c2ccccc2)N1,129000
4,NS(=O)(=O)Cc1noc2ccccc12,129000
5,CC1(C)O[C@@H]2[C@@H](CO[C@@]3(COS(N)(=O)=O)OC(C)(C)O[C@@H]23)O1,129000
6,CC(=O)Nc1ccc(S(N)(=O)=O)cc1,129000
7,CCOc1ccc2nc(S(N)(=O)=O)sc2c1,129000
